Test results taken from ChEMBL document CHEMBL4421730, “Synthetic compounds and derivatives as modulators of smoking or nicotine ingestion and lung cancer” (2013).
Calls of active or inactive are those of the source. The rule behind the calls is not given here.

Experiments:
[1] = system: Rattus norvegicus; assay: Reduction of nicotine self-administration in nicotine-addicted Wistar rat at 15 mg/kg dosed on day 50 following self-administration of nicotine across 23 hrs period each day for 49 days relative to control; format: ADME, organism-based; design: scale not given: the % may be the effect or the level left; details: in vivo
[2] = system: Rattus norvegicus; assay: Reduction of nicotine self-administration in nicotine-addicted Wistar rat at 15 mg/kg dosed on day 50 following self-administration of nicotine across 23 hrs period each day for 49 days and measured on day 51 and 52 relative to control; format: ADME, organism-based; details: in vivo
[3] = target: Acetylcholine-binding protein (Lymnaea stagnalis) (UniProt P58154); assay: Binding affinity to Lymnaea stagnalis nicotinic acetylcholine receptor by fluorescence based assay; format: single protein
[4] = target: T1, CYP2A6 (Homo sapiens, UniProt P11509); assay: (§1) Binding affinity to synthetic N-terminal truncated CYP2A6 (unknown origin) assessed as effect on type-1 spectral shift lambda(min) by measuring displacement of coumarin at 100 uM preincubated with […] coumarin by spectral interaction analysis; details: synthetic N-terminal truncated CYP2A6, probe coumarin, […]
T1 sequence (P11509 whole entry): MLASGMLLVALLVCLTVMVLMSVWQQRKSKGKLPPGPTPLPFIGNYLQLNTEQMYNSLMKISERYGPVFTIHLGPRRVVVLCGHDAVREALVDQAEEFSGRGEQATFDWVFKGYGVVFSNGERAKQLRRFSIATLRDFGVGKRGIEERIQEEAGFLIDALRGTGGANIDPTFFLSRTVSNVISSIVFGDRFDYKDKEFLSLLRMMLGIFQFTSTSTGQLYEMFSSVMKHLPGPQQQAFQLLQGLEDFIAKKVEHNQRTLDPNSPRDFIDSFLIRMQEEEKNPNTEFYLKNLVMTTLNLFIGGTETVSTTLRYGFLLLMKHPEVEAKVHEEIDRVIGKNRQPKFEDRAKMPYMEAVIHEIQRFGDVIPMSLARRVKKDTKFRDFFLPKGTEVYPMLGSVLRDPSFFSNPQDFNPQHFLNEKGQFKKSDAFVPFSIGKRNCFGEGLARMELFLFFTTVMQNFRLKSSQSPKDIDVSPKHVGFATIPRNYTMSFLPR

[5] = target: T1, CYP2A6; assay: (§2) Binding affinity to synthetic N-terminal truncated CYP2A6 (unknown origin) assessed as effect on type-1 spectral shift lambda(max) by measuring displacement of coumarin at 100 uM preincubated with […] coumarin by spectral interaction analysis; details: synthetic N-terminal truncated CYP2A6, probe coumarin, […]
[6] = target: T2, Cytochrome P450 2A6 (Homo sapiens, UniProt P11509); assay: Binding affinity to synthetic N-terminal truncated CYP2A6 (unknown origin) assessed as occurrence of type-1 binding by spectral interaction analysis
T2 sequence (P11509 whole entry): T1 sequence (P11509 whole entry)

[7] = target: T2, Cytochrome P450 2A6; assay: Inhibition of human CYP2A6 expressed in insect cell membranes assessed as reduction in enzyme-mediated coumarin 7-hydroxylation at 400 uM in presence of glucose-6-phosphate, glucose-6-phosphate dehydrogenase and NADPH-generating system by fluorometry
[8] = target: Acetylcholine-binding protein (Lymnaea stagnalis) (UniProt P58154); assay: Displacement of [125I]bungarotoxin from Lymnaea stagnalis nicotinic acetylcholine receptor assessed as residual radioligand binding relative to control
[9] = target: T2, Cytochrome P450 2A6; assay: as §1; details: 100 µM
[10] = target: T2, Cytochrome P450 2A6; assay: as §2; details: 100 µM
[11] = system: Rattus norvegicus; assay: Reduction of nicotine self-administration in nicotine-addicted Wistar rat at 16 mg/kg dosed on day 50 following self-administration of nicotine across 23 hrs period each day for 49 days and measured on day 51 and 52 relative to control; format: ADME, organism-based; details: in vivo

Sequence of Acetylcholine-binding protein (Lymnaea stagnalis) (P58154 whole entry, the tested form may be a part): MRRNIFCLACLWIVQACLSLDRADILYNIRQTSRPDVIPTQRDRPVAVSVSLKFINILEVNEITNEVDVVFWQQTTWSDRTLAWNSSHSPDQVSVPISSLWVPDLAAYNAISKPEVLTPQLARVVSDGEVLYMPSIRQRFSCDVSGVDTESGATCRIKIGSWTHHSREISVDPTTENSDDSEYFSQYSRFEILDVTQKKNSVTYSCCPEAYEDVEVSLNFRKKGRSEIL

| SMILES | Activity [3] | Activity [6] | further results |
| --- | --- | --- | --- |
| Cl.Cl.c1cncc(-c2c[nH]cn2)c1 | inactive |  | Activity [1]: 40%; Activity [2]: Toxic |
| N[C@@H]1C[C@H]1c1ccccc1.N[C@H]1C[C@@H]1c1ccccc1 | Active |  |  |
| Cc1cscc1-c1cccnc1 | Active |  |  |
| BrCC1CCC(c2cccnc2)O1 (configuration not stated) | Active |  |  |
| c1cncc(-c2cccnc2)c1 | Active |  |  |
| O=Cc1ccc(-c2cccnc2)o1 |  | Not Active | inhibition at 100 µM [4]: 100%; inhibition at 100 µM [5]: 100% |
| Cc1cn(-c2cccnc2)cn1 | Active |  |  |
| c1cncc(-n2cnnn2)c1 |  |  | inhibition (INH) [7]: Active |
| c1ccc(-c2ccsc2)cc1 |  | Active |  |
| OCC1CCC(c2cccnc2)O1 (configuration not stated) | inactive |  |  |
| NCC1CCC(c2cccnc2)O1 (mixture of isomers) | Active |  | Activity [8]: 30% |
| c1cncc(-c2cccs2)c1 | Active |  |  |
| Cc1cscc1-c1ccccc1 |  | Active |  |
| CCC1CCC(c2cccnc2)O1 (configuration not stated) | inactive |  |  |
| CC(=O)SCc1ccc(-c2cccnc2)o1 |  | Not Active | Activity [9]: Not Active; Activity [10]: Not Active |
| NC[C@@H]1CC[C@@H](c2cccnc2)O1 (relative stereo) | Active |  | Activity [8]: 25% |
| Cc1ccsc1-c1cccnc1 |  | Active |  |
| SCc1ccc(-c2cccnc2)o1 |  | Not Active | inhibition at 100 µM [4]: 100%; inhibition at 100 µM [5]: 100% |
| Cl.Cl.NCc1ccc(-c2cccnc2)o1 |  |  | Activity [11]: Toxic |
| Cc1csc(-c2cccnc2)n1 |  | Active |  |
| Cc1ccsc1-c1ccc(F)nc1 |  | Active |  |
| CN(C)CC#Cc1cccnc1 |  | Not Active |  |
